Laboratory results taken from PubChem BioAssay (NCI).
“And” between values parts separate entries of the source, which are not always exact repeats. Equal values may be shown once.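 These data come from cells grown in 96-well plates and exposed to compound for 48 hours at five concentrations. GI50 marks 50% less growth. TGI marks complete inhibition of growth.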

Columns and labels:
Assay in all cases: growth of human tumour cells (NCI), 48 h
MCF7 breast = tested on: MCF7 breast
NCI-H226 lung = tested on: NCI-H226 lung
SNB-75 CNS = tested on: SNB-75 CNS
OVCAR-4 ovarian = tested on: OVCAR-4 ovarian
SW-620 colon = tested on: SW-620 colon
TK-10 renal = tested on: TK-10 renal
UO-31 renal = tested on: UO-31 renal
SK-OV-3 ovarian = tested on: SK-OV-3 ovarian
KM12 colon = tested on: KM12 colon
IGROV1 ovarian = tested on: IGROV1 ovarian

| SMILES | GI50 (MCF7 breast) [µM] | TGI (MCF7 breast) | GI50 (NCI-H226 lung) [µM] | TGI (NCI-H226 lung) | GI50 (SNB-75 CNS) [µM] | TGI (SNB-75 CNS) | GI50 (OVCAR-4 ovarian) | TGI (OVCAR-4 ovarian) | GI50 (SW-620 colon) [µM] | TGI (SW-620 colon) | TGI (TK-10 renal) [µM] | GI50 (UO-31 renal) [µM] | TGI (UO-31 renal) | GI50 (SK-OV-3 ovarian) [µM] | TGI (SK-OV-3 ovarian) [µM] | GI50 (KM12 colon) [µM] | TGI (KM12 colon) | GI50 (IGROV1 ovarian) [µM] | TGI (IGROV1 ovarian) | GI50 (TK-10 renal) [µM] |
| --- | --- | --- | --- | --- | --- | --- | --- | --- | --- | --- | --- | --- | --- | --- | --- | --- | --- | --- | --- | --- |
| C[C@]12CC[C@@H]3c4cc(-c5ccc(F)cc5)c(O)cc4CC[C@H]3[C@@H]1CC[C@@H]2O | 5.21 | 18.6 µM | 10.3 | 30.4 µM | 2.06 | 8.38 µM | 4.04 µM | 17.1 µM | 10.1 | 21.8 µM | 21.7 | 7.01 | 21.6 µM | 13.3 | 28.2 | 6.49 | 20.9 µM | 6 | 20.4 µM |  |
| N#Cc1ccc2c(c1)C(=O)c1c-2n(CCCCl)c(=O)c2cc([N+](=O)[O-])ccc12 | 0.38 | > 100 µM | 9.1 | 89.9 µM | 3.51 | 11.5 µM | 60.8 µM | > 100 µM | 0.801 | > 100 µM | > 100 | 2.61 | > 100 µM | 5.29 | 24.7 | > 100 | > 100 µM | 3.95 | 53.3 µM | 42.9 |
| C[C@]12CC[C@H](OC3OC(CO)C(O)C(O)C3O)C[C@H]1CC[C@@H]1[C@@H]2CC[C@]2(C)[C@@H](C3=CCOC3=O)CC[C@]12O (stereo partly specified) | > 100 | 47.2 µM and > 100 µM |  | 26.4 µM and > 100 µM |  | 31.6 µM and > 100 µM | > 100 µM and 20.7 µM | 50 µM and > 100 µM | > 100 | 50 µM and > 100 µM | > 100 | > 100 | 50 µM and > 100 µM | > 100 | > 100 | > 100 | 50 µM and > 100 µM | > 100 | 50 µM and > 100 µM |  |
| O=C(O)CCCSc1ccccc1 |  | > 100 µM |  | > 100 µM |  | > 100 µM |  | > 100 µM |  | > 100 µM | > 100 |  | > 100 µM |  | > 100 |  | > 100 µM |  | > 100 µM |  |
| COc1ccc(-c2cc(-c3ccc(Cl)cc3)nc(SCCCC(=O)NO)n2)cc1 | 1.81 | 7.43 µM | 1.49 | 6.89 µM | 1.22 | 5.61 µM | 0.849 µM | 11.6 µM | 0.553 | 3.29 µM | 5.78 | 0.237 | 1 µM | 1.67 | 5.68 | 1.44 | 4.12 µM | 1.09 | 3.56 µM | 0.499 |
| CNC(=S)NC(=O)c1c(Cl)n(C(=O)OC(C)(C)C)c2ccccc12 | 28.3 | > 100 µM | > 100 | > 100 µM | 96 | > 100 µM | > 100 µM | > 100 µM | 79.2 | > 100 µM | > 100 | 73.8 | > 100 µM | > 100 | > 100 | 77.4 | > 100 µM | 21 | > 100 µM | 97.5 |
| CS(=O)(=O)CCNCc1ccc(-c2ccc3ncnc(Nc4ccc(OCc5ccccc5)c(Br)c4)c3c2)o1 | 7.07 | 24.6 µM | 10.1 | > 25 µM | 10.1 | > 25 µM | 15.5 µM | > 25 µM | 5.29 | 11.1 µM | > 22 | 3.64 | 11.5 µM | 0.115 | > 25 | 9.06 | > 25 µM | 4.94 | > 25 µM | 2.02 |
| CCN(Cc1ccccc1)c1ccc(CO)c(Cl)c1 | 0.338 | 25.9 µM | 0.0913 | 0.233 µM | 13.6 | 69.7 µM | 0.416 µM | 12.1 µM | 1.27 | > 100 µM | 0.281 | 6.5 | > 100 µM | 5.78 | 35.6 | 20.5 | 63.3 µM | 0.112 | 0.934 µM | 0.0649 |
| COc1ccc(NC([Se])=NC23CC4CC(CC(C4)C2)C3)cc1 | 1.57 | 9.4 µM | 1.25 | 5.26 µM | 1.54 | 4.5 µM | 0.42 µM | 3.46 µM | 1.51 | 6.45 µM | 5.52 | 1.74 | 4.11 µM | 2.45 | 7.43 | 1.85 | 5.54 µM | 1.64 | 7.7 µM | 2.1 |
| COC(=O)c1cc2c3ccccc3n3c(=O)c4cc5ccccc5nc4c(n1)c23 | > 100 | > 100 µM | > 100 | > 100 µM | > 100 | > 100 µM | > 100 µM | > 100 µM | > 100 | > 100 µM | > 100 | > 100 | > 100 µM | > 100 | > 100 | > 100 | > 100 µM | > 100 | > 100 µM | > 100 |
| COc1cc(-c2ccc(-c3ccc(C(=N)N)nc3)s2)cc(OC)c1OC | 1.3 | 3.24 µM | 10.8 | 31.1 µM | 1.5 | 5.16 µM | 2.69 µM | 10.4 µM | 2.09 | 5.24 µM | 9.35 | 1.88 | 3.4 µM | 13.1 | 26 | 2.78 | 10.5 µM | 2.63 | 6.2 µM | 3.19 |
| C=C1C(C2(C)C(OC(C)=O)CC(=O)OC(C)(COC(C)=O)C2CC(=O)OC)C(OC=O)C(OC(=O)C(O)C(C)CC)C2(C)C(c3ccoc3)CC(=O)C12O (stereo unspecified) |  | > 100 µM |  | > 100 µM |  | > 100 µM |  | > 100 µM |  | > 100 µM | > 100 |  | 18.1 µM |  | > 100 |  | > 100 µM |  | > 100 µM |  |
| C=C1C(=O)O[C@H]2[C@H]1CC/C(COC(=O)c1cc3ccccc3o1)=C\CC[C@@]1(C)O[C@@H]21 | 0.395 | 2.18 µM | 1.74 | 3.6 µM | 1.34 | 3.18 µM | 1.56 µM | 3.98 µM | 0.662 | 2.49 µM | 9.45 | 1.46 | 2.79 µM | 16.7 | 32.7 | 2.02 | 4.61 µM | 1.39 | 3.23 µM | 3.01 |
| O=c1cc(N2CCN(CCCCCOc3cc(O)c4c(=O)cc(-c5ccccc5)oc4c3)CC2)c2ccccc2o1 | 83.1 | > 100 µM | 23.9 | > 100 µM | > 100 | > 100 µM | 62.7 µM | > 100 µM | > 100 | > 100 µM | > 100 | 50.8 | > 100 µM | > 100 | > 100 | 77.8 | > 100 µM | 47.4 | > 100 µM | > 100 |
| C=C1C(=O)OC2C1CCC(C)C1C=CC(=O)C12C (stereo unspecified) |  | 16.5 µM |  | 13 µM |  | 26.8 µM |  | 16.6 µM |  | 4.68 µM | 10.6 |  | 9.26 µM |  | 98.8 |  | 5.96 µM |  | 19.4 µM |  |
| O=C(CC(C(=O)c1cccs1)c1cccs1)c1ccsc1 (stereo unspecified) |  | > 100 µM |  | > 100 µM |  | > 100 µM |  | > 100 µM |  | > 100 µM | > 100 |  | > 100 µM |  | > 100 |  | > 100 µM |  | > 100 µM |  |
| CCCN(CCC)c1ccc(/C=C/c2ccc3cc(OCC)ccc3n2)cc1 | > 100 | > 100 µM | 58.6 | > 100 µM | 54.7 | > 100 µM | 72.7 µM | > 100 µM | > 100 | > 100 µM | > 100 | > 100 | > 100 µM | > 100 | > 100 | > 100 | > 100 µM | > 100 | > 100 µM | > 100 |
| CC(=C/C=C/C=C(C)\C=C\C=C(\C)C(=O)O)/C=C/C=C(/C)C(=O)O |  | > 100 µM |  | > 100 µM |  | > 100 µM |  | > 100 µM |  | > 100 µM | > 100 |  | > 100 µM |  | > 100 |  | > 100 µM |  | > 100 µM |  |
| Cc1nc2sc(C(=O)Nc3cccc4ccccc34)c(N)c2cc1C(O)c1ccccc1 (stereo unspecified) | 0.0373 | 13.4 µM | 1.19 | 28.4 µM | 0.0241 | 11.7 µM | 0.215 µM | 44.2 µM | 0.0377 | 23.4 µM | > 91.5 | 0.283 | 14.2 µM | 0.0702 | 67.4 | 0.044 | 1.73 µM | 0.0651 | 12.4 µM | 1.57 |
